Changes are numbered by the printed parent chain. pEC50: −log10 of the molar value. Where two headings read alike, the source gives them in different places.
Assays:
Format in all cases: biochemical
[1] = molecular target: T1, PPIP5K2^KD E192G mutant (Homo sapiens, UniProt O43314, E192G); assay: ATPase activity of E192G mutant
T1 construct: The kinase domain of human PPIP5K2 (PPIP5K2^KD; residues 1–366); made in house
T1 sequence (O43314 1-366 E192G): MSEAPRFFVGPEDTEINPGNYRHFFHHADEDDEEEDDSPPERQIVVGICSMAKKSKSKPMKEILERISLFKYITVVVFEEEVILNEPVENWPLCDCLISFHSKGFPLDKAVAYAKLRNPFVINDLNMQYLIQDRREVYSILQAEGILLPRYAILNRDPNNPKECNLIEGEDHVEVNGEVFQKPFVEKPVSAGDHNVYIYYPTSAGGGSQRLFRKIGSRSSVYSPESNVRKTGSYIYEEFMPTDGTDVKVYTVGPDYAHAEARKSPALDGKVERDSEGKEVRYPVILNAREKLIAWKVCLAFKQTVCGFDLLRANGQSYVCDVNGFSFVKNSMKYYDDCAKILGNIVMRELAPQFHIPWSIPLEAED
Procedure: (§1) The initial InsP6 concentration was either 500 nM, 70 nM, or 40 nM. Various concentrations of 2,5-di-O-Bn-InsP4 were present as indicated. Radioactivity was assessed using an in-line Flo1 detector. The ADP-driven dephosphorylation of 100 nM 1,5-[PP]2-InsP4 by PPIP5K2^KD was usually determined by a luminescence-based assay of ATP accumulation ([Riley et al., 2012; Weaver et al., 2013]). The IC50 values were determined using GraphPad Prism v6.02 (n ≥ 3). In some experiments, 1,5-[PP]2-[^3H]InsP4 dephosphorylation by PPIP5K2^KD was assayed in 50 μl buffer containing 50 mM KCl, 20 mM HEPES pH 7.0, 7 mM MgSO4, 5 mM ADP, 1 mM EDTA. Reactions were then quenched, neutralized, and analyzed with HPLC using a Partisphere SAX column ([Weaver et al., 2013]); 1 ml fractions were collected for liquid scintillation spectrometry. The ATPase activity of PPIP5K2^KD (10–270 μg/ml) was assayed from Pi release following incubation at 37°C for 120–180 min in 20 μl reaction mixtures containing 20 mM Tris/HCl, pH 7.5, 10 mM ATP, 100 mM KCl, 0.1 mM EDTA, and 13 mM MgCl2.
(§2) Protein Expression, Purification, Crystallization and Structure Determination […]
(§3) The structure was further manually rebuilt with COOT and refined with PHENIX and
(§4) REFMAC from the CCP4 package. Ligand topology and parameter files were prepared using
(§5) the PRODRG server. The molecular graphics representations were prepared with the program
(§6) PyMol (Schrödinger, LLC). The 2D ligand-protein interaction diagrams were generated by
(§7) LigPlot+. Atomic coordinates and structure factors have been deposited with the Protein Data
(§8) Bank with accession codes: 4NZM, 4NZN, 4NZO.
(§9) Mutants were generated using a site-directed mutagenesis kit (Stratagene). Pairs of complementary
primers were designed as shown below, with mutagenic primers underlined (only 5’ primers are
All mutated constructs were sequenced. Mutant proteins were expressed and purified as for wild-

[2] = molecular target: T2, PPIP5K2^KD K103A mutant (Homo sapiens, UniProt O43314, K103A); assay: ATPase activity of K103A mutant; conditions: Figures 7B and 7C
T2 construct: The kinase domain of human PPIP5K2 (PPIP5K2^KD; residues 1–366); made in house
T2 sequence (O43314 1-366 K103A): T1 sequence (O43314 1-366 E192G) with K103A, G192E
Procedure: as §1, §2, §3, §4
the PRODRG server. The molecular graphics representations were prepared with the program […]

[3] = molecular target: T3, PPIP5K2^KD E192Q mutant (Homo sapiens, UniProt O43314, E192Q); assay: ATPase activity of E192Q mutant; conditions: 25 μM, Figure 7E
T3 construct: The kinase domain of human PPIP5K2 (PPIP5K2^KD; residues 1–366); made in house
T3 sequence (O43314 1-366 E192Q): T1 sequence (O43314 1-366 E192G) with G192Q
Procedure: as §1
Protein Expression, Purification, Crystallization and Structure Determination
Full-length human IP6K2, the kinase domain of human PPIP5K2 (PPIP5K2KD; residues 1-
366), and the N-terminally truncated domain used for the crystallography studies (residues
41-366) were all sub-cloned, expressed and purified as before (Wang et al., 2012; Weaver et
al., 2013). […]
as §3, §4, §5, §6, §7, §8, §9
primers were designed as shown below, with mutagenic primers underlined (only 5’ primers are […]

[4] = molecular target: T4, PPIP5K2^KD (kinase domain of human PPIP5K2) (Homo sapiens, UniProt O43314); assay: ATPase activity of PPIP5K2KD (Pi release); conditions: for stimulation of ATPase activity (in words): 25 μM, wild-type enzyme, Figure 2
T4 construct: The kinase domain of human PPIP5K2 (PPIP5K2^KD; residues 1–366); made in house
T4 sequence (O43314 1-366): T1 sequence (O43314 1-366 E192G) with G192E
Procedure: as §1

| analog-activated ATPase activity compared to wild-type enzyme (in words) [2] | stimulation of ATP hydrolysis ([4]; 25 μM analog) [fold] | pEC50 ([4]; dose-response, key of Figure 4A, n = 3, read-out: EC50, stimulation of ATPase activities) | pEC50 ([4]; Figure 4A, read-out: EC50, stimulation of ATPase activity) | Structure (SMILES) | rate of ligand-stimulated ATPase activity vs wild-type (in words) [1] | rate of ligand-stimulated ATPase activity vs wild-type (in words) [3] | stimulation of ATPase activity (in words) [4] |
| --- | --- | --- | --- | --- | --- | --- | --- |
| only a slight reduction | 9 | 6.26 |  | O=C(CP(=O)(O)O)O[C@@H]1[C@@H](OP(=O)(O)O)[C@H](OP(=O)(O)O)[C@H](OCc2ccccc2)[C@H](OP(=O)(O)O)[C@H]1OP(=O)(O)O [compound 2, 2-O-benzyl-5-O-α-phosphonoacetyl-myo-inositol 1,3,4,6-tetrakisphosphate] | neither of these particular mutations altered the rate | neither of these particular mutations altered the rate | strongly activated |
| only a slight reduction |  |  | 6.47 | O=P(O)(O)O[C@@H]1[C@@H](OCc2ccccc2)[C@H](OP(=O)(O)O)[C@@H](OP(=O)(O)O)[C@@H](OCc2ccccc2)[C@H]1OP(=O)(O)O [compound 10, 2,5-di-O-Bn-InsP4] | neither of these particular mutations altered the rate | neither of these particular mutations altered the rate | highest degree of ATPase activity among all of the analogs |
